The target in one experiment is Histone deacetylase. Description: Inhibition of HDAC extracted from human HeLa cell nucleus using Boc-Lys(Ac)-AMC as substrate preincubated for 5 mins followed by substrate addition measured after 30 mins by fluorescence based assay. The format is subcellular.
For experiment [1], the system named is MV4-11. Description: Antitumor activity against human MV4-11 cells xenografted in BALB/c nude mouse at 45 mg/kg, ip qd treated for 19 days relative to control. In kind it is functional. The following applies: MV4-11, 456 h, time 19 day, read-out: TGI.
Experiment [2] relates to MV4-11. Description: Antiproliferative activity against human MV4-11 cells incubated for 96 hrs by CCK8 assay. In kind it is functional, cell-based. The following applies: MV4-11, 96 h.
Experiment [3] deals with T1, DNA (cytosine-5)-methyltransferase 3B (Homo sapiens, UniProt Q9UBC3). Description: Inhibition of DNMT3B (unknown origin).
In experiment [4] the target is T2, DNA (cytosine-5)-methyltransferase 1 (Homo sapiens, UniProt P26358). Description: Induction of thermal stabilization of N-terminal 6xHis-FLAG-tagged […] human DNMT1 (698 to 1616 residues) extracted from Sf9 cells assessed as change in melting temperature at 10 uM by SYPRO Orange dye based PTS assay (reference value: 0.0 degreeC). The format is cell-based.
Target sequence in this assay (P26358 whole entry, the tested form may be a part): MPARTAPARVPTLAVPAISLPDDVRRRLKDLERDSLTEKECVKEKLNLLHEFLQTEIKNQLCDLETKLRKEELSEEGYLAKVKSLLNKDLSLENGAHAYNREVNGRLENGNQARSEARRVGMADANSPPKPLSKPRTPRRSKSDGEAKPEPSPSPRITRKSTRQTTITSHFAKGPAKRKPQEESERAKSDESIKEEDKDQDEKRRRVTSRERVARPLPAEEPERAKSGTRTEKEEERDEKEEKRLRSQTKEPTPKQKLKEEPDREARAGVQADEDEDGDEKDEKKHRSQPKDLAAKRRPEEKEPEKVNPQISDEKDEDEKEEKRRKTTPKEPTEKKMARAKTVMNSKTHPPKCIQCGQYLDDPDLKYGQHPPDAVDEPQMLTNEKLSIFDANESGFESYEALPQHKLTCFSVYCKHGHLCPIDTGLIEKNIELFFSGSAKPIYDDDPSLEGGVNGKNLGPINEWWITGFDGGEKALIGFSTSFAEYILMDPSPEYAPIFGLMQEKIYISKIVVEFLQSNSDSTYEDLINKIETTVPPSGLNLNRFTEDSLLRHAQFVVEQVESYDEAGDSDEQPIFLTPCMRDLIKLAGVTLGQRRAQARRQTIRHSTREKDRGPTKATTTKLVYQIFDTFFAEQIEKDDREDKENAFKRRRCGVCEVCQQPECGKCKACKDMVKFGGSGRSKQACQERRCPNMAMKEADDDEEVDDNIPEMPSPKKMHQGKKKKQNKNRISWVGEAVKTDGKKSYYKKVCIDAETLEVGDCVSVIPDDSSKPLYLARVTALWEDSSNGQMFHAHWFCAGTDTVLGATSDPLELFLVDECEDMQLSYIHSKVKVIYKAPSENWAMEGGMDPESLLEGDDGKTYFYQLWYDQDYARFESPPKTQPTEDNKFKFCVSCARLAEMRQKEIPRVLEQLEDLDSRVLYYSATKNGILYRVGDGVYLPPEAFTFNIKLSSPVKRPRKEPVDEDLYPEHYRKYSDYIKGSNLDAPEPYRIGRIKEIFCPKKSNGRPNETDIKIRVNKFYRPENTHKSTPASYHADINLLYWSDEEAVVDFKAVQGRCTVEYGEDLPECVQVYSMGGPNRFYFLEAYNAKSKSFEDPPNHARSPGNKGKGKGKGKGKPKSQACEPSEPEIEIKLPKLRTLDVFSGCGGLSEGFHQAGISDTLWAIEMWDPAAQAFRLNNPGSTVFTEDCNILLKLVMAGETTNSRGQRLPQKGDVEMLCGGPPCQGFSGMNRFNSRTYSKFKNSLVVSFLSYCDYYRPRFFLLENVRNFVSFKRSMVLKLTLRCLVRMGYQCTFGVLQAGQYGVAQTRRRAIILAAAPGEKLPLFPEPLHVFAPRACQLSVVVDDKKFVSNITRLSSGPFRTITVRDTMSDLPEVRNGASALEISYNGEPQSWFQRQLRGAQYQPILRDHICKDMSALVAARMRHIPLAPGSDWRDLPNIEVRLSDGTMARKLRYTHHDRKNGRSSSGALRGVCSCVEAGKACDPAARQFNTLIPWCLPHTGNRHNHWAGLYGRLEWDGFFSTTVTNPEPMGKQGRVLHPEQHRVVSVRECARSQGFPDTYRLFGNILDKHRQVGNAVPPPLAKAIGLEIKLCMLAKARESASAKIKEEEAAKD

The target in experiment [5] is T2, DNA (cytosine-5)-methyltransferase 1. Description: Inhibition of NLuc-fused DNMT1 expressed hypomorphic in human HCT-116 cells assessed as TSG repoter activation at 3 uM incubated for 72 hrs by Nano-Glo Luciferase assay. In kind it is cell-based.
Target sequence in this assay (P26358 whole entry, looked up, the tested form may be a part): as the sequence (P26358 whole entry, the tested form may be a part) above
The target of experiment [6] is T3, Protein deacetylase HDAC6 (Homo sapiens, UniProt Q9UBN7).
T3 sequence (Q9UBN7 whole entry): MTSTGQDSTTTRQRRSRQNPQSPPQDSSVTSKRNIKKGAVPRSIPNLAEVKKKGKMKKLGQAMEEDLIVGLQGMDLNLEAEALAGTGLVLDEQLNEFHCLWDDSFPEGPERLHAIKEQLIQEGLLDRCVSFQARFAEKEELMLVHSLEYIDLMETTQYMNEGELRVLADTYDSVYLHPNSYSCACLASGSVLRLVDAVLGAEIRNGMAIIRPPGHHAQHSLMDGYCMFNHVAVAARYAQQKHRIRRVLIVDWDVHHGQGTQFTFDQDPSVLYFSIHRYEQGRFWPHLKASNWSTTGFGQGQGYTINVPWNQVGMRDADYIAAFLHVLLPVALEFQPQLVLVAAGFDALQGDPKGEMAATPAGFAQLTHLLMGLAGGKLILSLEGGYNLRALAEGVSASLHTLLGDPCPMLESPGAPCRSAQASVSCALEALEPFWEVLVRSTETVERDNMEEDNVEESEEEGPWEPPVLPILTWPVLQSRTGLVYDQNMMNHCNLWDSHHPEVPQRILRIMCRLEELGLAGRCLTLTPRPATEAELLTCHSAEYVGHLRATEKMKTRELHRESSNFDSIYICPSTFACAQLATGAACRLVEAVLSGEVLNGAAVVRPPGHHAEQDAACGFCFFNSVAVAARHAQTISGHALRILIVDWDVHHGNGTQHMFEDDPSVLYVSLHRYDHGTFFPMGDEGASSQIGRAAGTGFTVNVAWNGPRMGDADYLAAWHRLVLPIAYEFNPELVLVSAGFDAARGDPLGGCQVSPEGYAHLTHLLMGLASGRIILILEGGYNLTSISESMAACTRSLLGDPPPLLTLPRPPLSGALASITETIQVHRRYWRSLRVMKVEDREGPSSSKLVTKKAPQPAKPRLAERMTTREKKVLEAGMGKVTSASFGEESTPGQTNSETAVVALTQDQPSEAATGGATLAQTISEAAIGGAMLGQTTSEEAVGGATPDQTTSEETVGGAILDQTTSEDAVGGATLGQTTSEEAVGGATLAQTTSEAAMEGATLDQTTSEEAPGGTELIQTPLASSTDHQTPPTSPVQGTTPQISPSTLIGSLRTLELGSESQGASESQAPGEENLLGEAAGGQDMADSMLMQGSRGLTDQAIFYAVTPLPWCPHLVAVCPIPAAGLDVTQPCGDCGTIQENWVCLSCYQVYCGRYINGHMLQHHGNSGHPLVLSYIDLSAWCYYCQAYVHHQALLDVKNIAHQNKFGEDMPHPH
Description: Inhibition of HDAC6 (unknown origin).

Experiment [7] has as its target DNA (cytosine-5)-methyltransferase 3A (Homo sapiens) (UniProt Q9Y6K1). Description: Inhibition of DNMT3A (unknown origin) at 100 uM relative to control.
The target in experiment [8] is T2, DNA (cytosine-5)-methyltransferase 1. Description: Inhibition of DNMT1 (unknown origin) at 100 uM relative to control.
Target sequence in this assay (P26358 whole entry, the tested form may be a part): as the sequence (P26358 whole entry, the tested form may be a part) above
The target of experiment [9] is T1, DNA (cytosine-5)-methyltransferase 3B. Description: Inhibition of DNMT3B (unknown origin) at 100 uM relative to control.
In another experiment the target is Histone deacetylase 1 (Homo sapiens, UniProt Q13547). Description: Inhibition of HDAC1 (unknown origin).
Chain of Histone deacetylase 1 (Q13547 whole entry): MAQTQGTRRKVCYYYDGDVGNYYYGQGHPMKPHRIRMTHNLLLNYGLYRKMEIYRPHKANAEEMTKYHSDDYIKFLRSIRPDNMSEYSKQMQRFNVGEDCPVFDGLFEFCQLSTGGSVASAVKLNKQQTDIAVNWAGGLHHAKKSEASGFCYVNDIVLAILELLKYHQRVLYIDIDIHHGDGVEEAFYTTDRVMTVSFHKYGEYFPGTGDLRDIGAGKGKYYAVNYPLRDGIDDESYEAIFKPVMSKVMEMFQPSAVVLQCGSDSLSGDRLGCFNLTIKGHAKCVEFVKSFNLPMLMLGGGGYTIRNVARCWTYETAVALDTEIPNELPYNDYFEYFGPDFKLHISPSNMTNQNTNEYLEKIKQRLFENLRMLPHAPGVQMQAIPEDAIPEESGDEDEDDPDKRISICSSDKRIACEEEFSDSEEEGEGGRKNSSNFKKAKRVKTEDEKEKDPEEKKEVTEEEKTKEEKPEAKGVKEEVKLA

Bounds are passed on as bounds.

Chain of DNA (cytosine-5)-methyltransferase 3A (Homo sapiens) (Q9Y6K1 whole entry, looked up): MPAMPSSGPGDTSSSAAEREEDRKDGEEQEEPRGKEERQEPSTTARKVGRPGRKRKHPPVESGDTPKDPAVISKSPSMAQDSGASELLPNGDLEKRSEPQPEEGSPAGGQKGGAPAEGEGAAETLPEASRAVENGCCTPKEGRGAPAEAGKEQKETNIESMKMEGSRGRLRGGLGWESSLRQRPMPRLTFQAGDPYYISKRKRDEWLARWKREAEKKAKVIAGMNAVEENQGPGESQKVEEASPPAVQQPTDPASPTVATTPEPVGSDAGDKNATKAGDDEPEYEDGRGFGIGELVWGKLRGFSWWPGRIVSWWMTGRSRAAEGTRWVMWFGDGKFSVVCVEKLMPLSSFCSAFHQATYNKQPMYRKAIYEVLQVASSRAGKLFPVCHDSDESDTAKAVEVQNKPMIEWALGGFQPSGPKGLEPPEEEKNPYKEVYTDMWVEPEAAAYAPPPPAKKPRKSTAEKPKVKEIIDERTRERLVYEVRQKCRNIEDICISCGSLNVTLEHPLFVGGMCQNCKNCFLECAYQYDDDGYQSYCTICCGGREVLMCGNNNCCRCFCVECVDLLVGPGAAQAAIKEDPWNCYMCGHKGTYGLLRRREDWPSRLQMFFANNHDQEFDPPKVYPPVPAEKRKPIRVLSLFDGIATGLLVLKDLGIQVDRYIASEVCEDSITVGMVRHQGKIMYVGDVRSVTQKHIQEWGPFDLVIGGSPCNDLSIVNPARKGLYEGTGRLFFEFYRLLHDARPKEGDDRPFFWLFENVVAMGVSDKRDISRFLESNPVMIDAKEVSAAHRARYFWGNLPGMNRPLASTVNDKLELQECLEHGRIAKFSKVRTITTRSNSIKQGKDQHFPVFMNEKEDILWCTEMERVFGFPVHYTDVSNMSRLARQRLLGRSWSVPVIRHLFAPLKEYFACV

The compound `CCc1c(C#N)c(SC(C(N)=O)c2ccccc2)nc(N2CCC(NC(=O)CCCCC(=O)Nc3ccc(C(=O)NO)cc3)CC2)c1C#N` (stereo unspecified) displayed a half-maximal inhibitory concentration (IC50) at Histone deacetylase of 280 nM.

`CCc1c(C#N)c(SC(C(N)=O)c2ccccc2)nc(N2CCC(CNc3ncc(C(=O)NO)cn3)CC2)c1C#N` (stereo unspecified) gave a concentration for half-maximal inhibition (IC50) on Histone deacetylase of 140 nM.

`CCc1c(C#N)c(SC(C(N)=O)c2ccccc2)nc(N2CCC(Nc3ncc(C(=O)NO)cn3)CC2)c1C#N` (stereo unspecified) displayed a half-maximal inhibitory concentration (IC50) on Histone deacetylase of 190 nM. This IC50 and that of the compound before are within 1.5-fold of each other.

Regarding `CCc1c(C#N)c(SC(C(N)=O)c2ccccc2)nc(N2CCC(NCc3ccc(/C=C/C(=O)NO)cc3)CC2)c1C#N` (stereo unspecified), the IC50 against Histone deacetylase worked out at 130 nM; in the experiment with MV4-11 [2], 660 nM. Moreover, in the experiment on MV4-11 [1], the inhibition in vivo at 45 mg/kg stood at 80%.

For `CCc1c(C#N)c(SC(C(N)=O)c2ccccc2)nc(N2CCC(NC(=O)CCCCCC(=O)NO)CC2)c1C#N` (stereo unspecified), the IC50 against Histone deacetylase came to 210 nM.

As to `CCc1c(C#N)c(SC(C(N)=O)c2ccccc2)nc(N2CCC(NC(=O)CCCCC(=O)NO)CC2)c1C#N` (stereo unspecified), the IC50 against Histone deacetylase was over 5000 nM.

`CCc1c(C#N)c(SC(C(N)=O)c2ccccc2)nc(N2CCC(NC(=O)Cc3ccc(C(=O)Nc4ccccc4N)cc3)CC2)c1C#N` (stereo unspecified) had a concentration for half-maximal inhibition (IC50) on Histone deacetylase of over 20000 nM.

In experiment [3], `O=C(NO)C1CCN(CC(O)COC(Cn2c3ccccc3c3ccccc32)Cn2c3ccccc3c3ccccc32)CC1` (stereo unspecified) yielded an IC50 of 1320 nM.

For `CCc1c(C#N)c(SC(C(N)=O)c2ccccc2)nc(N2CCC(NC(=O)CCCC(=O)Nc3ccc(C(=O)NO)cc3)CC2)c1C#N` (stereo unspecified), at Histone deacetylase, the IC50 turned out to be 570 nM.

`CCc1c(C#N)c(SC(C(N)=O)c2ccccc2)nc(N2CCN(c3ncc(C(=O)NO)cn3)CC2)c1C#N` (stereo unspecified) came in with an IC50 against Histone deacetylase of 60 nM. This IC50 is about 9.5-fold lower than that of the compound before.

In the case of `CCc1c(C#N)c(S[C@H](C(N)=O)c2ccccc2)nc(N2CCC(CNCc3ccc(/C=C/C(=O)NO)cc3)CC2)c1C#N`, the shift in melting temperature (ΔTm) in [4] stood at 9 °C. Further, the 50% effective concentration (EC50) in experiment [5] is 1180 nM.

For `CCc1c(C#N)c(SC(C(N)=O)c2ccccc2)nc(N2CCC(NC(=O)CCC(=O)Nc3ccc(/C=C/C(=O)NO)cc3)CC2)c1C#N` (stereo unspecified), on Histone deacetylase, the 50% inhibitory concentration (IC50) was found to be 230 nM.

In the case of `CCc1c(C#N)c(SC(C(N)=O)c2ccccc2)nc(N2CCN(Cc3ccc(/C=C/C(=O)NO)cc3)CC2)c1C#N` (stereo unspecified), the IC50 against Histone deacetylase stood at 140 nM. This IC50 is about 1.6-fold lower than that of the compound before.

Compound `CCc1c(C#N)c(SC(C(N)=O)c2ccccc2)nc(N2CCC(NC(=O)CCC(=O)NCc3ccc(C(=O)NO)cc3)CC2)c1C#N` (stereo unspecified) registered an IC50 at Histone deacetylase of 230 nM.

In the case of `CCc1c(C#N)c(SC(C(N)=O)c2ccccc2)nc(N2CCC(NCc3ccc(C(=O)Nc4ccccc4N)cc3)CC2)c1C#N` (stereo unspecified), at Histone deacetylase, the IC50 is over 20000 nM.

Turning to `CCc1c(C#N)c(SC(C(N)=O)c2ccccc2)nc(N(C)C2CCN(c3ncc(C(=O)NO)cn3)CC2)c1C#N` (stereo unspecified), the values for the 50% inhibitory concentration (IC50) (at Histone deacetylase; in experiment [6]; against Histone deacetylase 1) were 230 nM, 17.4 nM and 56.8 nM, respectively. Also, the values for the inhibition in [7], in experiment [8] and in experiment [9] were 23.4%, 69.9% and 48.5%, respectively.

The compound `CCc1c(C#N)c(SC(C(N)=O)c2ccccc2)nc(N2CCC(NC(=O)CCC(=O)NO)CC2)c1C#N` (stereo unspecified) returned a concentration for half-maximal inhibition (IC50) at Histone deacetylase of over 5000 nM.

Turning to `CCc1c(C#N)c(SC(C(N)=O)c2ccccc2)nc(N(C)CCNCc2ccc(/C=C/C(=O)NO)cc2)c1C#N` (stereo unspecified), the IC50 on Histone deacetylase was 160 nM.

At Histone deacetylase, `CCc1c(C#N)c(SC(C(N)=O)c2ccccc2)nc(N2CCC(NC(=O)CCCC(=O)NO)CC2)c1C#N` (stereo unspecified) registered an IC50 of 1070 nM.

Regarding `CCc1c(C#N)c(SC(C(N)=O)c2ccccc2)nc(N2CCC(NC(=O)CCC(=O)Nc3ccc(C(=O)NO)cc3)CC2)c1C#N` (stereo unspecified), the IC50 at Histone deacetylase was 1300 nM.

At Histone deacetylase, `CCc1c(C#N)c(SC(C(N)=O)c2ccccc2)nc(N2CCC(NCc3ccc(C(=O)NO)cc3)CC2)c1C#N` (stereo unspecified) gave an IC50 of over 5000 nM.

`CCc1c(C#N)c(CN(C)C2CCN(c3ncc(C(=O)NO)cn3)CC2)nc(SC(C(N)=O)c2ccccc2)c1C#N` (stereo unspecified): at Histone deacetylase, the half-inhibitory concentration (IC50) was 100 nM.

The compound `CCc1c(C#N)c(SC(C(N)=O)c2ccccc2)nc(N2CCC(NC(=O)CCCCCCC(=O)NO)CC2)c1C#N` (stereo unspecified) displayed an IC50 against Histone deacetylase of 300 nM.

With `CCc1c(C#N)c(SC(C(N)=O)c2ccccc2)nc(N2CCC(NCc3ccc(C(=O)NCc4ccc(/C=C/C(=O)NO)cc4)cc3)CC2)c1C#N` (stereo unspecified), the concentration for half-maximal inhibition (IC50) at Histone deacetylase worked out at 80 nM.

At Histone deacetylase, `CCc1c(C#N)c(SC(C(N)=O)c2ccccc2)nc(N2CCC(NCc3ccc(C(=O)NCc4ccc(C(=O)NO)cc4)cc3)CC2)c1C#N` (stereo unspecified) yielded a 50% inhibitory concentration (IC50) of 250 nM. Against the preceding compound, the IC50 is about 3.1-fold higher.

`CCc1c(C#N)c(SC(C(N)=O)c2ccccc2)nc(N2CCC(NC(=O)CCCCCCCC(=O)NO)CC2)c1C#N` (stereo unspecified) yielded a concentration for half-maximal inhibition (IC50) on Histone deacetylase of 1160 nM.

For the compound `CCc1c(C#N)c(SC(C(N)=O)c2ccccc2)nc(N2CCC(NC(=O)c3ccc(C(=O)Nc4ccccc4N)cc3)CC2)c1C#N` (stereo unspecified), at Histone deacetylase, the 50% inhibitory concentration (IC50) was over 20000 nM.

`CCc1c(C#N)c(SC(C(N)=O)c2ccccc2)nc(N2CCC(NC(=O)CCCC(=O)Nc3ccccc3N)CC2)c1C#N` (stereo unspecified): on Histone deacetylase, the concentration for half-maximal inhibition (IC50) was over 20000 nM.

With `CCc1c(C#N)c(SC(C(N)=O)c2ccccc2)nc(N2CCC(NC(=O)CCCC(=O)NCc3ccc(C(=O)NO)cc3)CC2)c1C#N` (stereo unspecified), the IC50 at Histone deacetylase was found to be 330 nM.

`CCc1c(C#N)c(SC(C(N)=O)c2ccccc2)nc(N2CCC(CNCc3ccc(/C=C/C(=O)NO)cc3)CC2)c1C#N` (stereo unspecified): the thermal shift (ΔTm) in [4] stood at 11 °C. The inhibition in vivo at 45 mg/kg in the experiment with MV4-11 [1] was 95%. For the same compound, the half-maximal effective concentration (EC50) in experiment [5] was found to be 1090 nM.

Turning to `CCc1c(C#N)c(SC(C(N)=O)c2ccccc2)nc(N2CCC(NC(=O)c3ccc(C(=O)NO)cc3)CC2)c1C#N` (stereo unspecified), the half-maximal inhibitory concentration (IC50) on Histone deacetylase stood at 870 nM.

By IC50 is commonly meant the midpoint of a concentration-inhibition curve. Read a high IC50 as a need for much substance. One may read the ΔTm as the shift of the melting midpoint relative to a reference. In general, EC50 refers to the concentration at which the effect is half-maximal. Broadly, the inhibition is the percentage by which the read-out fell short of the control. Low readings indicate a response near the control, high ones a response far below the control.

Source of the values: ChEMBL document CHEMBL5608247, “Development of a First-in-Class DNMT1/HDAC Inhibitor with Improved Therapeutic Potential and Potentiated Antitumor Immunity” (J Med Chem, 2024).
